Assay results from US8546386B2, “Corrosion and microbial control in hydrocarbonaceous compositions” (Dow Global Technologies LLC, priority 2008, dated 2013).

Legend:
Type in all cases: cell-based
[1] = tested on: mixed inoculum (Ps. aeruginosa, Y. tropicalis, H. resinae); test: Microbial resistance of biodiesel fuel, overall statements; conditions: absence of biocide
[2] = tested on: Hormoconis resinae ATCC#20495; test: Microbial testing in biodiesel fuel, plate count; conditions: for Mold (H. resinae) count: no biocide; for H. resinae organism count: Biocide 0 ppm
[3] = tested on: Pseudomonas aeruginosa ATCC#33988; test: Microbial testing in biodiesel fuel, plate count; conditions: for Bacteria (Ps. aeruginosa) count: no biocide; for Ps. aeruginosa organism count: Biocide 0 ppm
[4] = tested on: Pseudomonas aeruginosa ATCC#33988; test: Microbial testing in diesel fuel, plate count
[5] = tested on: Hormoconis resinae ATCC#20495; test: Microbial testing in diesel fuel, plate count
[6] = tested on: Yarrowia tropicalis ATCC#48138; test: Microbial testing in diesel fuel, plate count
[7] = tested on: Yarrowia tropicalis ATCC#48138; test: Microbial testing in biodiesel fuel, plate count; conditions: Biocide 0 ppm
[8] = amino alcohol 1500 ppm + FS 135 ppm, Day 0
[9] = amino alcohol 1500 ppm + FS 135 ppm, Wk 1
[10] = amino alcohol 1500 ppm + FS 135 ppm, Wk 2
[11] = amino alcohol 1500 ppm + FS 135 ppm, Wk 3
[12] = amino alcohol 1500 ppm + FS 135 ppm, Wk 4
[13] = amino alcohol 1500 ppm + FS 1000 ppm, Day 0
[14] = amino alcohol 1500 ppm + FS 1000 ppm, Wk 1
[15] = amino alcohol 1500 ppm + FS 1000 ppm, Wk 2
[16] = amino alcohol 1500 ppm + FS 1000 ppm, Wk 3
[17] = amino alcohol 1500 ppm + FS 1000 ppm, Wk 4
[18] = amino alcohol 1500 ppm, no biocide, Day 0
[19] = amino alcohol 1500 ppm, no biocide, Wk 1
[20] = amino alcohol 1500 ppm, no biocide, Wk 2
[21] = amino alcohol 1500 ppm, no biocide, Wk 3
[22] = amino alcohol 1500 ppm, no biocide, Wk 4
[23] = amino alcohol 3000 ppm + FS 135 ppm, Day 0
[24] = amino alcohol 3000 ppm + FS 135 ppm, Wk 1
[25] = amino alcohol 3000 ppm + FS 135 ppm, Wk 2
[26] = amino alcohol 3000 ppm + FS 135 ppm, Wk 3
[27] = amino alcohol 3000 ppm + FS 135 ppm, Wk 4
[28] = amino alcohol 3000 ppm + FS 1000 ppm, Day 0
[29] = amino alcohol 3000 ppm + FS 1000 ppm, Wk 1
[30] = amino alcohol 3000 ppm + FS 1000 ppm, Wk 2
[31] = amino alcohol 3000 ppm + FS 1000 ppm, Wk 3
[32] = amino alcohol 3000 ppm + FS 1000 ppm, Wk 4
[33] = amino alcohol 3000 ppm, no biocide, Day 0
[34] = amino alcohol 3000 ppm, no biocide, Wk 1
[35] = amino alcohol 3000 ppm, no biocide, Wk 2
[36] = amino alcohol 3000 ppm, no biocide, Wk 3
[37] = amino alcohol 3000 ppm, no biocide, Wk 4

In the case of `CCCCCCCC/C=C\CCCCCCCC(=O)O` [Oleic Acid, oleic acid], the “effect on microbial resistance of biodiesel” value [1] is reported as “no effect”, the “Mold (H. resinae) count” value ([2]; additive 500 ppm, Week 1) is reported as 1.70E+05 Mold/ml and the “Mold (H. resinae) count” value ([2]; additive 500 ppm, Week 2) is reported as 6.00E+05 Mold/ml. For the same molecule, the “Mold (H. resinae) count” value ([2]; additive 500 ppm, Week 3) was 8.20E+05 Mold/ml, the “Mold (H. resinae) count” value ([2]; additive 500 ppm, Week 4) was 7.80E+03 Mold/ml and the “Mold (H. resinae) count” value ([2]; additive 1500 ppm, Week 1) was 6.40E+04 Mold/ml. The “Mold (H. resinae) count” value ([2]; additive 1500 ppm, Week 2) was 7.70E+05 Mold/ml, the “Mold (H. resinae) count” value ([2]; additive 1500 ppm, Week 3) was 6.00E+05 Mold/ml and the “Mold (H. resinae) count” value ([2]; additive 1500 ppm, Week 4) was 9.80E+03 Mold/ml. For the same molecule, the “Bacteria (Ps. aeruginosa) count” value ([3]; additive 500 ppm, Week 1) was 7.80E+05 Bact/ml, the “Bacteria (Ps. aeruginosa) count” value ([3]; additive 500 ppm, Week 2) was 8.80E+05 Bact/ml and the “Bacteria (Ps. aeruginosa) count” value ([3]; additive 500 ppm, Week 3) was 7.40E+05 Bact/ml. The “Bacteria (Ps. aeruginosa) count” value ([3]; additive 500 ppm, Week 4) was 8.00E+05 Bact/ml, the “Bacteria (Ps. aeruginosa) count” value ([3]; additive 1500 ppm, Week 1) was 5.00E+04 Bact/ml and the “Bacteria (Ps. aeruginosa) count” value ([3]; additive 1500 ppm, Week 2) was 2.00E+05 Bact/ml. For the same molecule, the “Bacteria (Ps. aeruginosa) count” value ([3]; additive 1500 ppm, Week 3) was 1.30E+05 Bact/ml and the “Bacteria (Ps. aeruginosa) count” value ([3]; additive 1500 ppm, Week 4) was 3.20E+05 Bact/ml.
For `NC1(CO)CCCCC1` [ACyHM, 1-aminocyclohexylmethanol], the “Ps. aeruginosa organism count” value [4, 8] was 3.7E6, the “Ps. aeruginosa organism count” value [4, 9] was 9.0E5 and the “Ps. aeruginosa organism count” value [4, 10] was 4.3E4. For the same molecule, the “Ps. aeruginosa organism count” value [4, 11] was 1.1E2, the “Ps. aeruginosa organism count” value [4, 12] was 2.3E2 and the “Ps. aeruginosa organism count” value [4, 13] was 3.7E6. For the same molecule, the “Ps. aeruginosa organism count” value [4, 14] was 7.8E3, the “Ps. aeruginosa organism count” value [4, 15] was less than 10 and the “Ps. aeruginosa organism count” value [4, 16] was less than 10. The “Ps. aeruginosa organism count” value [4, 17] was less than 10, the “Ps. aeruginosa organism count” value [4, 18] was 3.7E6 and the “Ps. aeruginosa organism count” value [4, 19] was 5.8E6. The “Ps. aeruginosa organism count” value [4, 20] was 6.3E5, the “Ps. aeruginosa organism count” value [4, 21] was 4.4E5 and the “Ps. aeruginosa organism count” value [4, 22] was 8.7E5. The “Ps. aeruginosa organism count” value [4, 23] was 3.7E6, the “Ps. aeruginosa organism count” value [4, 24] was 8.6E2 and the “Ps. aeruginosa organism count” value [4, 25] was 7.0E1. The “Ps. aeruginosa organism count” value [4, 26] was less than 10, the “Ps. aeruginosa organism count” value [4, 27] was 9.0E1 and the “Ps. aeruginosa organism count” value [4, 28] was 3.7E6. For the same molecule, the “Ps. aeruginosa organism count” value [4, 29] was less than 10, the “Ps. aeruginosa organism count” value [4, 30] was less than 10 and the “Ps. aeruginosa organism count” value [4, 31] was less than 10. For the same molecule, the “Ps. aeruginosa organism count” value [4, 32] was less than 10, the “Ps. aeruginosa organism count” value [4, 33] was 3.7E6 and the “Ps. aeruginosa organism count” value [4, 34] was 2.0E6. The “Ps. aeruginosa organism count” value [4, 35] was 1.4E5, the “Ps. aeruginosa organism count” value [4, 36] was 7.7E4 and the “Ps. aeruginosa organism count” value [4, 37] was 9.0E4. For the same molecule, the “H. resinae organism count” value [5, 8] was 5.3E5, the “H. resinae organism count” value [5, 9] was 2.5E5 and the “H. resinae organism count” value [5, 10] was 2.0E3. For the same molecule, the “H. resinae organism count” value [5, 11] was 4.3E2, the “H. resinae organism count” value [5, 12] was 7.0E2 and the “H. resinae organism count” value [5, 13] was 5.3E5. For the same molecule, the “H. resinae organism count” value [5, 14] was 1.1E4, the “H. resinae organism count” value [5, 15] was less than 10 and the “H. resinae organism count” value [5, 16] was less than 10. The “H. resinae organism count” value [5, 17] was 8.0E1, the “H. resinae organism count” value [5, 18] was 5.3E5 and the “H. resinae organism count” value [5, 19] was 5.0E5. The “H. resinae organism count” value [5, 20] was 1.3E5, the “H. resinae organism count” value [5, 21] was 1.2E5 and the “H. resinae organism count” value [5, 22] was 2.7E5. For the same molecule, the “H. resinae organism count” value [5, 23] was 5.3E5, the “H. resinae organism count” value [5, 24] was 2.0E3 and the “H. resinae organism count” value [5, 25] was 2.7E2. For the same molecule, the “H. resinae organism count” value [5, 26] was less than 10, the “H. resinae organism count” value [5, 27] was 1.6E2 and the “H. resinae organism count” value [5, 28] was 5.3E5. For the same molecule, the “H. resinae organism count” value [5, 29] was 4.3E2, the “H. resinae organism count” value [5, 30] was less than 10 and the “H. resinae organism count” value [5, 31] was 5.0E1. For the same molecule, the “H. resinae organism count” value [5, 32] was less than 10, the “H. resinae organism count” value [5, 33] was 5.3E5 and the “H. resinae organism count” value [5, 34] was 9.4E4. For the same molecule, the “H. resinae organism count” value [5, 35] was 4.6E4, the “H. resinae organism count” value [5, 36] was 6.6E4 and the “H. resinae organism count” value [5, 37] was 4.8E4. The “Y. tropicalis organism count” value [6, 8] was 2.8E5, the “Y. tropicalis organism count” value [6, 9] was 7.8E4 and the “Y. tropicalis organism count” value [6, 10] was 5.0E3. The “Y. tropicalis organism count” value [6, 11] was 6.7E2, the “Y. tropicalis organism count” value [6, 12] was 1.8E2 and the “Y. tropicalis organism count” value [6, 13] was 2.8E5. For the same molecule, the “Y. tropicalis organism count” value [6, 14] was 1.6E4, the “Y. tropicalis organism count” value [6, 15] was less than 10 and the “Y. tropicalis organism count” value [6, 16] was less than 10. The “Y. tropicalis organism count” value [6, 17] was less than 10, the “Y. tropicalis organism count” value [6, 18] was 2.8E5 and the “Y. tropicalis organism count” value [6, 19] was 4.5E5. The “Y. tropicalis organism count” value [6, 20] was 1.3E5, the “Y. tropicalis organism count” value [6, 21] was 7.6E4 and the “Y. tropicalis organism count” value [6, 22] was 5.3E4. The “Y. tropicalis organism count” value [6, 23] was 2.8E5, the “Y. tropicalis organism count” value [6, 24] was 1.3E2 and the “Y. tropicalis organism count” value [6, 25] was less than 10. The “Y. tropicalis organism count” value [6, 26] was less than 10, the “Y. tropicalis organism count” value [6, 27] was less than 10 and the “Y. tropicalis organism count” value [6, 28] was 2.8E5. The “Y. tropicalis organism count” value [6, 29] was less than 10, the “Y. tropicalis organism count” value [6, 30] was less than 10 and the “Y. tropicalis organism count” value [6, 31] was less than 10. For the same molecule, the “Y. tropicalis organism count” value [6, 32] was less than 10, the “Y. tropicalis organism count” value [6, 33] was 2.8E5 and the “Y. tropicalis organism count” value [6, 34] was 9.3E4. For the same molecule, the “Y. tropicalis organism count” value [6, 35] was 4.0E4, the “Y. tropicalis organism count” value [6, 36] was 1.6E4 and the “Y. tropicalis organism count” value [6, 37] was 2.7E4. For the same molecule, the “H. resinae organism count” value ([2]; aminoalcohol 1500 ppm, Week 1) was less than 1.0E2, the “H. resinae organism count” value ([2]; aminoalcohol 1500 ppm, Week 2) was less than 1.0E2 and the “H. resinae organism count” value ([2]; aminoalcohol 1500 ppm, Week 3) was less than 1.0E2. For the same molecule, the “H. resinae organism count” value ([2]; aminoalcohol 1500 ppm, Week 4) was less than 1.0E2, the “H. resinae organism count” value ([2]; aminoalcohol 3000 ppm, Week 1) was less than 1.0E2 and the “H. resinae organism count” value ([2]; aminoalcohol 3000 ppm, Week 2) was less than 1.0E2. The “H. resinae organism count” value ([2]; aminoalcohol 3000 ppm, Week 3) was less than 1.0E2, the “H. resinae organism count” value ([2]; aminoalcohol 3000 ppm, Week 4) was less than 1.0E2 and the “Ps. aeruginosa organism count” value ([3]; aminoalcohol 1500 ppm, Week 1) was less than 1.0E2. The “Ps. aeruginosa organism count” value ([3]; aminoalcohol 1500 ppm, Week 2) was less than 1.0E2, the “Ps. aeruginosa organism count” value ([3]; aminoalcohol 1500 ppm, Week 3) was less than 1.0E2 and the “Ps. aeruginosa organism count” value ([3]; aminoalcohol 1500 ppm, Week 4) was less than 1.0E2. For the same molecule, the “Ps. aeruginosa organism count” value ([3]; aminoalcohol 3000 ppm, Week 1) was less than 1.0E2, the “Ps. aeruginosa organism count” value ([3]; aminoalcohol 3000 ppm, Week 2) was less than 1.0E2 and the “Ps. aeruginosa organism count” value ([3]; aminoalcohol 3000 ppm, Week 3) was less than 1.0E2. The “Ps. aeruginosa organism count” value ([3]; aminoalcohol 3000 ppm, Week 4) was less than 1.0E2, the “Y. tropicalis organism count” value ([7]; aminoalcohol 1500 ppm, Week 1) was less than 1.0E2 and the “Y. tropicalis organism count” value ([7]; aminoalcohol 1500 ppm, Week 2) was less than 1.0E2. The “Y. tropicalis organism count” value ([7]; aminoalcohol 1500 ppm, Week 3) was less than 1.0E2, the “Y. tropicalis organism count” value ([7]; aminoalcohol 1500 ppm, Week 4) was less than 1.0E2 and the “Y. tropicalis organism count” value ([7]; aminoalcohol 3000 ppm, Week 1) was less than 1.0E2. For the same molecule, the “Y. tropicalis organism count” value ([7]; aminoalcohol 3000 ppm, Week 2) was less than 1.0E2, the “Y. tropicalis organism count” value ([7]; aminoalcohol 3000 ppm, Week 3) was less than 1.0E2 and the “Y. tropicalis organism count” value ([7]; aminoalcohol 3000 ppm, Week 4) was less than 1.0E2.
With `CCCCCCCC/C=C\CCCCCCCC(=O)[O-].[K+]` [KOH/Oleic, potassium oleate] the “effect on microbial resistance of biodiesel” value [1] was “no effect”.
